Test results taken from the supplement of paper PMC10307832.

Assays:
Test in all cases: relative viability (nuclei count vs DMSO), 5 days (fraction); higher = more cells survive
[1] = compound: Nc1nc2[nH]cc(CCc3ccc(C(=O)N[C@@H](CCC(=O)O)C(=O)O)cc3)c2c(=O)[nH]1 [Pemetrexed] + CC(C)C[C@H](NC(=O)[C@H](Cc1ccccc1)NC(=O)c1cnccn1)B(O)O [Bortezomib] (partner 0.002 µM)
Summary of the method: (§1)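 Relative viability was taken as the ratio of nuclei in treated wells to nuclei in vehicle wells. Lung cancer cell lines in 1536-well plates received compounds by pin tool one day after seeding, either one drug alone or a fixed anchor-drug dose plus five library-drug doses (not always all listed) in √10 steps. Nuclei were counted on 4× images after 5 days of treatment, and values are medians of duplicate plates.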

[2] = compound: CC[C@H](Nc1ncnc2[nH]cnc12)c1nc2cccc(F)c2c(=O)n1-c1ccccc1 [Idelalisib] + CS(=O)(=O)CCNCc1ccc(-c2ccc3ncnc(Nc4ccc(OCc5cccc(F)c5)c(Cl)c4)c3c2)o1 [Lapatinib] (partner 2 µM)
Summary of the method: as §1

[3] = compound: Nc1nc2[nH]cc(CCc3ccc(C(=O)N[C@@H](CCC(=O)O)C(=O)O)cc3)c2c(=O)[nH]1 [Pemetrexed] + N=C(N)NC(=N)NCCc1ccccc1 [Phenformin] (partner 250 µM)
Summary of the method: as §1

[4] = compound: Nc1nc2[nH]cc(CCc3ccc(C(=O)N[C@@H](CCC(=O)O)C(=O)O)cc3)c2c(=O)[nH]1 [Pemetrexed] + CS(=O)(=O)N1CCN(Cc2cc3nc(-c4cccc5[nH]ncc45)nc(N4CCOCC4)c3s2)CC1 [Pictilisib] (partner 1 µM)
Summary of the method: as §1

Cell Line NCI-H2347 has a relative viability ([1]; first compound 0.002 µM) of 0.678, a relative viability ([1]; first compound 0.006325 µM) of 1.26 and a relative viability ([1]; first compound 0.02 µM) of 1.07. For the same cell line, the relative viability ([1]; first compound 0.06325 µM) was 0.903, the relative viability ([1]; first compound 0.2 µM) was 0.599 and the relative viability ([2]; first compound 0.04 µM) was 0.942. It also gave a relative viability ([2]; first compound 0.1265 µM) of 0.917, a relative viability ([2]; first compound 0.4 µM) of 0.84 and a relative viability ([2]; first compound 1.265 µM) of 1.01. For the same cell line, the relative viability ([2]; first compound 4 µM) was 0.969, the relative viability ([3]; first compound 0.002 µM) was 0.203 and the relative viability ([3]; first compound 0.006325 µM) was 0.369. For the same cell line, the relative viability ([3]; first compound 0.02 µM) was 0.484, the relative viability ([3]; first compound 0.06325 µM) was 0.412 and the relative viability ([3]; first compound 0.2 µM) was 0.387. It also gave a relative viability ([4]; first compound 0.002 µM) of 0.392, a relative viability ([4]; first compound 0.006325 µM) of 0.545 and a relative viability ([4]; first compound 0.02 µM) of 0.601. The relative viability ([4]; first compound 0.06325 µM) was 0.525 and the relative viability ([4]; first compound 0.2 µM) was 0.606.
Cell Line NCI-H2405 has a relative viability ([1]; first compound 0.002 µM) of 0.983, a relative viability ([1]; first compound 0.006325 µM) of 0.974 and a relative viability ([1]; first compound 0.02 µM) of 1.05. For the same cell line, the relative viability ([1]; first compound 0.06325 µM) was 0.986, the relative viability ([1]; first compound 0.2 µM) was 0.96 and the relative viability ([2]; first compound 0.04 µM) was 1.16. It also gave a relative viability ([2]; first compound 0.1265 µM) of 1.07, a relative viability ([2]; first compound 0.4 µM) of 0.897 and a relative viability ([2]; first compound 1.265 µM) of 1.14. It also gave a relative viability ([2]; first compound 4 µM) of 1.04, a relative viability ([3]; first compound 0.002 µM) of 0.37 and a relative viability ([3]; first compound 0.006325 µM) of 0.362. The relative viability ([3]; first compound 0.02 µM) was 0.423, the relative viability ([3]; first compound 0.06325 µM) was 0.432 and the relative viability ([3]; first compound 0.2 µM) was 0.392. It also gave a relative viability ([4]; first compound 0.002 µM) of 0.455, a relative viability ([4]; first compound 0.006325 µM) of 0.436 and a relative viability ([4]; first compound 0.02 µM) of 0.507. The relative viability ([4]; first compound 0.06325 µM) was 0.474 and the relative viability ([4]; first compound 0.2 µM) was 0.355.
Cell Line NCI-H3122 has a relative viability ([1]; first compound 0.002 µM) of 1.02, a relative viability ([1]; first compound 0.006325 µM) of 1.02 and a relative viability ([1]; first compound 0.02 µM) of 0.899. It also gave a relative viability ([1]; first compound 0.06325 µM) of 0.99, a relative viability ([1]; first compound 0.2 µM) of 0.877 and a relative viability ([2]; first compound 0.04 µM) of 1.06. For the same cell line, the relative viability ([2]; first compound 0.1265 µM) was 0.981, the relative viability ([2]; first compound 0.4 µM) was 1.05 and the relative viability ([2]; first compound 1.265 µM) was 1.03. For the same cell line, the relative viability ([2]; first compound 4 µM) was 1.05, the relative viability ([3]; first compound 0.002 µM) was 0.419 and the relative viability ([3]; first compound 0.006325 µM) was 0.37. It also gave a relative viability ([3]; first compound 0.02 µM) of 0.374, a relative viability ([3]; first compound 0.06325 µM) of 0.336 and a relative viability ([3]; first compound 0.2 µM) of 0.205. The relative viability ([4]; first compound 0.002 µM) was 0.6, the relative viability ([4]; first compound 0.006325 µM) was 0.584 and the relative viability ([4]; first compound 0.02 µM) was 0.628. It also gave a relative viability ([4]; first compound 0.06325 µM) of 0.526 and a relative viability ([4]; first compound 0.2 µM) of 0.338.
With PC-3 [JPC-3] the relative viability ([1]; first compound 0.002 µM) was 0.66, the relative viability ([1]; first compound 0.006325 µM) was 0.74 and the relative viability ([1]; first compound 0.02 µM) was 0.925. The relative viability ([1]; first compound 0.06325 µM) was 0.854, the relative viability ([1]; first compound 0.2 µM) was 0.772 and the relative viability ([2]; first compound 0.04 µM) was 0.455. It also gave a relative viability ([2]; first compound 0.1265 µM) of 0.49, a relative viability ([2]; first compound 0.4 µM) of 0.439 and a relative viability ([2]; first compound 1.265 µM) of 0.44. The relative viability ([2]; first compound 4 µM) was 0.36, the relative viability ([3]; first compound 0.002 µM) was 0.476 and the relative viability ([3]; first compound 0.006325 µM) was 0.517. It also gave a relative viability ([3]; first compound 0.02 µM) of 0.537, a relative viability ([3]; first compound 0.06325 µM) of 0.486 and a relative viability ([3]; first compound 0.2 µM) of 0.478. For the same cell line, the relative viability ([4]; first compound 0.002 µM) was 0.625, the relative viability ([4]; first compound 0.006325 µM) was 0.687 and the relative viability ([4]; first compound 0.02 µM) was 0.821. It also gave a relative viability ([4]; first compound 0.06325 µM) of 0.743 and a relative viability ([4]; first compound 0.2 µM) of 0.663.
PC-14 showed a relative viability ([1]; first compound 0.002 µM) of 0.873, a relative viability ([1]; first compound 0.006325 µM) of 0.85 and a relative viability ([1]; first compound 0.02 µM) of 0.808. For the same cell line, the relative viability ([1]; first compound 0.06325 µM) was 0.544, the relative viability ([1]; first compound 0.2 µM) was 0.188 and the relative viability ([2]; first compound 0.04 µM) was 0.329. For the same cell line, the relative viability ([2]; first compound 0.1265 µM) was 0.299, the relative viability ([2]; first compound 0.4 µM) was 0.309 and the relative viability ([2]; first compound 1.265 µM) was 0.306. For the same cell line, the relative viability ([2]; first compound 4 µM) was 0.252, the relative viability ([3]; first compound 0.002 µM) was 0.452 and the relative viability ([3]; first compound 0.006325 µM) was 0.582. For the same cell line, the relative viability ([3]; first compound 0.02 µM) was 0.901, the relative viability ([3]; first compound 0.06325 µM) was 0.445 and the relative viability ([3]; first compound 0.2 µM) was 0.27. The relative viability ([4]; first compound 0.002 µM) was 0.663, the relative viability ([4]; first compound 0.006325 µM) was 0.618 and the relative viability ([4]; first compound 0.02 µM) was 0.642. It also gave a relative viability ([4]; first compound 0.06325 µM) of 0.321 and a relative viability ([4]; first compound 0.2 µM) of 0.133.
RERF-LC-KJ gave a relative viability ([1]; first compound 0.002 µM) of 1.13, a relative viability ([1]; first compound 0.006325 µM) of 1.06 and a relative viability ([1]; first compound 0.02 µM) of 1.13. For the same cell line, the relative viability ([1]; first compound 0.06325 µM) was 1.04, the relative viability ([1]; first compound 0.2 µM) was 0.82 and the relative viability ([2]; first compound 0.04 µM) was 0.763. It also gave a relative viability ([2]; first compound 0.1265 µM) of 0.872, a relative viability ([2]; first compound 0.4 µM) of 0.814 and a relative viability ([2]; first compound 1.265 µM) of 0.83. The relative viability ([2]; first compound 4 µM) was 0.789, the relative viability ([3]; first compound 0.002 µM) was 0.435 and the relative viability ([3]; first compound 0.006325 µM) was 0.439. It also gave a relative viability ([3]; first compound 0.02 µM) of 0.43, a relative viability ([3]; first compound 0.06325 µM) of 0.411 and a relative viability ([3]; first compound 0.2 µM) of 0.349. For the same cell line, the relative viability ([4]; first compound 0.002 µM) was 0.579, the relative viability ([4]; first compound 0.006325 µM) was 0.471 and the relative viability ([4]; first compound 0.02 µM) was 0.558. It also gave a relative viability ([4]; first compound 0.06325 µM) of 0.594 and a relative viability ([4]; first compound 0.2 µM) of 0.277.
With SK-LU-1 the relative viability ([1]; first compound 0.002 µM) was 0.949, the relative viability ([1]; first compound 0.006325 µM) was 1.21 and the relative viability ([1]; first compound 0.02 µM) was 1.3. It also gave a relative viability ([1]; first compound 0.06325 µM) of 1.08, a relative viability ([1]; first compound 0.2 µM) of 1.31 and a relative viability ([2]; first compound 0.04 µM) of 0.851. For the same cell line, the relative viability ([2]; first compound 0.1265 µM) was 0.866, the relative viability ([2]; first compound 0.4 µM) was 0.617 and the relative viability ([2]; first compound 1.265 µM) was 0.998. It also gave a relative viability ([2]; first compound 4 µM) of 0.661, a relative viability ([3]; first compound 0.002 µM) of 0.497 and a relative viability ([3]; first compound 0.006325 µM) of 0.497. The relative viability ([3]; first compound 0.02 µM) was 0.626, the relative viability ([3]; first compound 0.06325 µM) was 0.547 and the relative viability ([3]; first compound 0.2 µM) was 0.534. For the same cell line, the relative viability ([4]; first compound 0.002 µM) was 0.43, the relative viability ([4]; first compound 0.006325 µM) was 0.559 and the relative viability ([4]; first compound 0.02 µM) was 0.727. It also gave a relative viability ([4]; first compound 0.06325 µM) of 0.513 and a relative viability ([4]; first compound 0.2 µM) of 0.496.
Cell Line SW 1573 has a relative viability ([1]; first compound 0.002 µM) of 1.1, a relative viability ([1]; first compound 0.006325 µM) of 0.881 and a relative viability ([1]; first compound 0.02 µM) of 1.11. The relative viability ([1]; first compound 0.06325 µM) was 0.896, the relative viability ([1]; first compound 0.2 µM) was 1.04 and the relative viability ([2]; first compound 0.04 µM) was 1.17. The relative viability ([2]; first compound 0.1265 µM) was 1.06, the relative viability ([2]; first compound 0.4 µM) was 0.913 and the relative viability ([2]; first compound 1.265 µM) was 1.12. It also gave a relative viability ([2]; first compound 4 µM) of 1.27, a relative viability ([3]; first compound 0.002 µM) of 0.401 and a relative viability ([3]; first compound 0.006325 µM) of 0.348. It also gave a relative viability ([3]; first compound 0.02 µM) of 0.447, a relative viability ([3]; first compound 0.06325 µM) of 0.353 and a relative viability ([3]; first compound 0.2 µM) of 0.388. For the same cell line, the relative viability ([4]; first compound 0.002 µM) was 0.421, the relative viability ([4]; first compound 0.006325 µM) was 0.475 and the relative viability ([4]; first compound 0.02 µM) was 0.488. The relative viability ([4]; first compound 0.06325 µM) was 0.533 and the relative viability ([4]; first compound 0.2 µM) was 0.463.
